Measurements published in PubChem BioAssay (NCI).
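1) Cells in 96-well plates. 2) Compound, 48 h, 5 concentrations. 3) Linear interpolation between surrounding doses. 4) Unreached endpoint = highest concentration. TGI: total growth inhibition.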

Each compound was assayed on MALME-3M melanoma (assay: inhibition of tumour cell growth, NCI panel, 48 h).
`COc1ccc(N2C(=O)C3c4[nH]c5cc(C)ccc5c4C4CCC(C(C)(C)C)CC4C3C2=O)cc1` (stereo not drawn) showed a TGI greater than 10 µM. With `CC1(C)C=CC(=O)C(O)C(C)(C)C1=O` (stereo not drawn) the TGI was greater than 100 µM. Work on `CNc1nc(N)nc(Nc2ccc(I)cc2)c1N=O` yielded a TGI greater than 100 µM. `O=C1/C(=C/c2ccc(Cl)cc2)CCCc2ccccc21` showed a TGI of 27.5 µM. `Cc1cc(C[C@H]2O[C@@H]3OC(C)(C)O[C@@H]3[C@H]3OC(C)(C)O[C@H]32)c2ccccc2n1` showed a TGI greater than 100 µM. With `Nc1ncnc2c1ccn2C/C=C/CO` the TGI was greater than 100 µM. `CC(C)(C)c1ccc2c(c1)C#Cc1cc3c(cc1OCCCO2)C#Cc1cc(C(C)(C)C)ccc1OCCCO3` was tested, and the TGI was greater than 100 µM.

The compounds below were run on U251 CNS (assay: inhibition of tumour cell growth, NCI panel, 48 h).
`CNc1nncc2[nH]cnc12` showed a TGI greater than 100 µM. `COc1ccc(N2C(=O)C3c4[nH]c5cc(C)ccc5c4C4CCC(C(C)(C)C)CC4C3C2=O)cc1` (stereo not drawn) gave a TGI greater than 10 µM. With `CC1(C)C=CC(=O)C(O)C(C)(C)C1=O` (stereo not drawn) the TGI was greater than 100 µM. Work on `O=C1/C(=C/c2ccc(Cl)cc2)CCCc2ccccc21` yielded a TGI of 27.4 µM. `Cc1cc(C[C@H]2O[C@@H]3OC(C)(C)O[C@@H]3[C@H]3OC(C)(C)O[C@H]32)c2ccccc2n1` gave a TGI greater than 100 µM. `Nc1ncnc2c1ccn2C/C=C/CO` was tested, and the TGI was greater than 100 µM. For `CC(C)(C)c1ccc2c(c1)C#Cc1cc3c(cc1OCCCO2)C#Cc1cc(C(C)(C)C)ccc1OCCCO3`, the TGI was greater than 100 µM.

Each compound was assayed on HT29 colon (assay: inhibition of tumour cell growth, NCI panel, 48 h).
Compound `CNc1nncc2[nH]cnc12` has a TGI greater than 100 µM. For `COc1ccc(N2C(=O)C3c4[nH]c5cc(C)ccc5c4C4CCC(C(C)(C)C)CC4C3C2=O)cc1` (stereo not drawn), the TGI was greater than 10 µM. With `CC1(C)C=CC(=O)C(O)C(C)(C)C1=O` (stereo not drawn) the TGI was greater than 100 µM. In the case of `CNc1nc(N)nc(Nc2ccc(I)cc2)c1N=O`, the TGI is reported as greater than 100 µM. With `O=C1/C(=C/c2ccc(Cl)cc2)CCCc2ccccc21` the TGI was 19.7 µM. Work on `Cc1cc(C[C@H]2O[C@@H]3OC(C)(C)O[C@@H]3[C@H]3OC(C)(C)O[C@H]32)c2ccccc2n1` yielded a TGI greater than 100 µM. With `Nc1ncnc2c1ccn2C/C=C/CO` the TGI was greater than 100 µM. In the case of `CC(C)(C)c1ccc2c(c1)C#Cc1cc3c(cc1OCCCO2)C#Cc1cc(C(C)(C)C)ccc1OCCCO3`, the TGI is reported as greater than 100 µM.

What follows are compounds tested on K-562 leukemia (assay: inhibition of tumour cell growth, NCI panel, 48 h).
Compound `COc1ccc(N2C(=O)C3c4[nH]c5cc(C)ccc5c4C4CCC(C(C)(C)C)CC4C3C2=O)cc1` (stereo not drawn) has a TGI greater than 10 µM. With `CC1(C)C=CC(=O)C(O)C(C)(C)C1=O` (stereo not drawn) the TGI was greater than 100 µM. With `CNc1nc(N)nc(Nc2ccc(I)cc2)c1N=O` the TGI was greater than 100 µM. Compound `O=C1/C(=C/c2ccc(Cl)cc2)CCCc2ccccc21` has a TGI of 12 µM. In the case of `Cc1cc(C[C@H]2O[C@@H]3OC(C)(C)O[C@@H]3[C@H]3OC(C)(C)O[C@H]32)c2ccccc2n1`, the TGI is reported as greater than 100 µM. `Nc1ncnc2c1ccn2C/C=C/CO` gave a TGI greater than 100 µM. Work on `CC(C)(C)c1ccc2c(c1)C#Cc1cc3c(cc1OCCCO2)C#Cc1cc(C(C)(C)C)ccc1OCCCO3` yielded a TGI greater than 100 µM.

What follows are compounds tested on ACHN renal (assay: inhibition of tumour cell growth, NCI panel, 48 h).
`CNc1nncc2[nH]cnc12` showed a TGI greater than 100 µM. `COc1ccc(N2C(=O)C3c4[nH]c5cc(C)ccc5c4C4CCC(C(C)(C)C)CC4C3C2=O)cc1` (stereo not drawn) gave a TGI greater than 10 µM. For `CC1(C)C=CC(=O)C(O)C(C)(C)C1=O` (stereo not drawn), the TGI was greater than 100 µM. In the case of `CNc1nc(N)nc(Nc2ccc(I)cc2)c1N=O`, the TGI is reported as greater than 100 µM. Work on `O=C1/C(=C/c2ccc(Cl)cc2)CCCc2ccccc21` yielded a TGI of 31.1 µM. Compound `Cc1cc(C[C@H]2O[C@@H]3OC(C)(C)O[C@@H]3[C@H]3OC(C)(C)O[C@H]32)c2ccccc2n1` has a TGI greater than 100 µM. `Nc1ncnc2c1ccn2C/C=C/CO` showed a TGI greater than 100 µM. `CC(C)(C)c1ccc2c(c1)C#Cc1cc3c(cc1OCCCO2)C#Cc1cc(C(C)(C)C)ccc1OCCCO3` was tested, and the TGI was greater than 100 µM.

These compounds were tested on KM12 colon (assay: inhibition of tumour cell growth, NCI panel, 48 h).
Compound `CNc1nncc2[nH]cnc12` has a TGI greater than 100 µM. For `COc1ccc(N2C(=O)C3c4[nH]c5cc(C)ccc5c4C4CCC(C(C)(C)C)CC4C3C2=O)cc1` (stereo not drawn), the TGI was greater than 10 µM. `CC1(C)C=CC(=O)C(O)C(C)(C)C1=O` (stereo not drawn) gave a TGI greater than 100 µM. In the case of `CNc1nc(N)nc(Nc2ccc(I)cc2)c1N=O`, the TGI is reported as greater than 100 µM. `O=C1/C(=C/c2ccc(Cl)cc2)CCCc2ccccc21` showed a TGI of 28.5 µM. For `Cc1cc(C[C@H]2O[C@@H]3OC(C)(C)O[C@@H]3[C@H]3OC(C)(C)O[C@H]32)c2ccccc2n1`, the TGI was greater than 100 µM. With `Nc1ncnc2c1ccn2C/C=C/CO` the TGI was greater than 100 µM. With `CC(C)(C)c1ccc2c(c1)C#Cc1cc3c(cc1OCCCO2)C#Cc1cc(C(C)(C)C)ccc1OCCCO3` the TGI was greater than 100 µM.

Each compound was assayed on HS 578T breast (assay: inhibition of tumour cell growth, NCI panel, 48 h).
Compound `CNc1nncc2[nH]cnc12` has a TGI greater than 100 µM. In the case of `COc1ccc(N2C(=O)C3c4[nH]c5cc(C)ccc5c4C4CCC(C(C)(C)C)CC4C3C2=O)cc1` (stereo not drawn), the TGI is reported as greater than 10 µM. In the case of `CC1(C)C=CC(=O)C(O)C(C)(C)C1=O` (stereo not drawn), the TGI is reported as greater than 100 µM. `CNc1nc(N)nc(Nc2ccc(I)cc2)c1N=O` showed a TGI greater than 100 µM. Work on `O=C1/C(=C/c2ccc(Cl)cc2)CCCc2ccccc21` yielded a TGI of 28.1 µM. Compound `Cc1cc(C[C@H]2O[C@@H]3OC(C)(C)O[C@@H]3[C@H]3OC(C)(C)O[C@H]32)c2ccccc2n1` has a TGI greater than 100 µM. `Nc1ncnc2c1ccn2C/C=C/CO` showed a TGI greater than 100 µM. `CC(C)(C)c1ccc2c(c1)C#Cc1cc3c(cc1OCCCO2)C#Cc1cc(C(C)(C)C)ccc1OCCCO3` was tested, and the TGI was greater than 100 µM.
